≈ marks a conversion by molar mass, not a printed value. Where two headings read alike, the source gives them in different places. Numbered stars: 1 amine (or outer) side, 2 acyl side, 3 side chain; on linkers, the order of the positions; unused ones are H or OH. Bridge positions count the residues as written; N and C are the ends. Side chains are listed from the residue outwards. Peptide text beside a SMILES is read from it. * marks the point of attachment. C20 diacid = O=C(O)CCCCCCCCCCCCCCCCCCC(=O)*; γGlu = O=C(O)[C@H](CCC(=O)[*:2])N[*:1]; AEEA = NCCOCCOCC(=O)O Some results are limits rather than exact numbers.

The values that follow come from patent US9023789B2, “Amylin analogs and pharmaceutical compositions thereof” (Novo Nordisk A/S, priority 2012, dated 2015).

The target of data set [1] is T1, human amylin 3(a) receptor (human calcitonin receptor + RAMP-3) in BHK570 cells (Homo sapiens, UniProt O60896+P30988).
T1 construct: expressed in transfected cells
The experiment in a line: ASSAY (II)a functional assay, human amylin receptor (CRE luciferase). The format is cell-based. As to conditions: for EC50: human amylin receptor functional potency, assay (II), read-out: hAmylin-R funct. EC50. In short, it runs like this:
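Readout is luminescence from a cAMP-responsive CRE-luc reporter, developed with LucLite for 30 min at room temperature. Cells were treated for 3 h at 37 °C in 10% FBS/DMEM buffered with 10 mM Hepes (pH 7.4).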

Data set [2] is described as follows: ASSAY (IV) determination of solubility. The class given is physicochemical. A digest of the protocol: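 Solubility measured by UPLC of supernatant after centrifugation, following 18 h at room temperature. Peptide ([…] in water) was diluted 1:1 into 100 mM glycylglycine (pH 3.0, 4.0, 5.0) or bistrispropane (pH 6.0-8.0).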
Data set [3] deals with T2, human amylin receptor (membranes from Amylin 3(a)/CRE-luc cells) (Homo sapiens, UniProt O60896+P30988).
T2 construct: expressed in transfected cells
T2 sequence (P30988 25-474): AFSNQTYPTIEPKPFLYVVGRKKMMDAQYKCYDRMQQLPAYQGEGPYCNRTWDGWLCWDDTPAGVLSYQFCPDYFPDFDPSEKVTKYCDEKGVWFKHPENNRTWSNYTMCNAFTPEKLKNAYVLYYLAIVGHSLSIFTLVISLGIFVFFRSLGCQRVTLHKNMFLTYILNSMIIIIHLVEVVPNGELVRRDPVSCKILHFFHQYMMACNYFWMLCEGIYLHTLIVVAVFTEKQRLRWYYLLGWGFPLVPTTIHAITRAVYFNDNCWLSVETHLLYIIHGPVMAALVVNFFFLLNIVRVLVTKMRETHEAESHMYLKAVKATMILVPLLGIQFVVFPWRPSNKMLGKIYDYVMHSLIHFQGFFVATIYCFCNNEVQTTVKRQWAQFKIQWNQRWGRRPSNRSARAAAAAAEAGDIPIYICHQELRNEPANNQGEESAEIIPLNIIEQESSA
T2 sequence (O60896 24-148 partner): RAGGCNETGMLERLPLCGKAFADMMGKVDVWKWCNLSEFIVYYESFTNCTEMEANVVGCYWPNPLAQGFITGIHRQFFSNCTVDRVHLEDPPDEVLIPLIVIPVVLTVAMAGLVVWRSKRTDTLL
The experiment in a line: ASSAY (V) binding to the human amylin receptor (SPA, 125I-rat amylin).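 On all read-outs here: competition binding of cell membranes (35 ng/µL) mixed with SPA beads in 384-well plates at 40 µL total volume, read by scintillation counting.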 The settings on record: for IC50: Table 4, read-out: hAmylin-R bind IC50.

Where [4] appears, read: hCTR funct. EC50 divided by hAmylin-R funct. EC50.
Setting [5] is: hCTR funct. EC50 over hAmylin-R funct. EC50.
The mark [6] stands for this setting: human functional selectivity: hCTR funct. EC50 / hAmylin-R funct. EC50.
Where [7] appears, read: bistrispropane buffer, pH 6.5, read-out: Solubility pH 6.5 Concentration.
Where [8] appears, read: bistrispropane buffer, pH 7.5, read-out: Solubility pH 7.5 Concentration.
The mark [9] stands for this setting: bistrispropane buffer, pH 6.0, read-out: Solubility pH 6.0 Concentration.
The mark [10] stands for this setting: bistrispropane buffer, pH 7.0, read-out: Solubility pH 7.0 Concentration.
Where [11] appears, read: bistrispropane buffer, pH 8.0, read-out: Solubility pH 8.0 Concentration.
[12] abbreviates: glycylglycine buffer, pH 3.0, read-out: Solubility pH 3.0 Concentration.
Where [13] appears, read: glycylglycine buffer, pH 4.0, read-out: Solubility pH 4.0 Concentration.
The mark [14] stands for this setting: glycylglycine buffer, pH 5.0, read-out: Solubility pH 5.0 Concentration.
Setting [15] is: Table 5, selectivity, hCTR bind IC50 / hAmylin-R bind IC50.
Where [16] appears, read: Table 5a, selectivity, hCTR bind IC50 / hAmylin-R bind IC50.
Where [17] appears, read: Table 5b, selectivity, hCTR bind IC50 / hAmylin-R bind IC50.
The mark [18] stands for this setting: Table 5c, selectivity, hCTR bind IC50 / hAmylin-R bind IC50.
Setting [19] is: Table 7, human binding selectivity, included for comparison.
Setting [20] is: Table 7a (preferred compounds), human binding selectivity, included for comparison.
Where [21] appears, read: ratio of human calcitonin receptor binding IC50 to human amylin receptor binding IC50.

For orientation: EC50 means the concentration at which the effect is half-maximal. Broadly, the IC50 is the concentration that inhibits the measured activity by half. Consider `CC[C@H](C)[C@H](NC(=O)[C@H](C)NC(=O)CNC(=O)[C@H](Cc1ccccc1)NC(=O)[C@H](CC(N)=O)NC(=O)[C@@H]1CCCN1C(=O)[C@H](CO)NC(=O)[C@H](CO)NC(=O)[C@H](Cc1c[nH]cn1)NC(=O)[C@H](CCCNC(=N)N)NC(=O)[C@H](CC(C)C)NC(=O)[C@H](Cc1ccccc1)NC(=O)[C@H](CC(N)=O)NC(=O)[C@H](C)NC(=O)[C@H](CC(C)C)NC(=O)[C@H](CCCNC(=N)N)NC(=O)[C@H](CCC(N)=O)NC(=O)[C@@H](NC(=O)[C@H](C)NC(=O)[C@@H]1CSSC[C@H](NC(=O)[C@@H](N)CCCCNC(=O)COCCOCCNC(=O)CC[C@H](NC(=O)CCCCCCCCCCCCCCCCCCC(=O)O)C(=O)O)C(=O)N[C@@H](CC(N)=O)C(=O)N[C@@H]([C@@H](C)O)C(=O)N[C@@H](C)C(=O)N[C@@H]([C@@H](C)O)C(=O)N1)[C@@H](C)O)C(=O)N1CCC[C@H]1C(=O)N[C@@H](CO)C(=O)N[C@@H](CO)C(=O)N[C@H](C(=O)N[C@@H](CC(N)=O)C(=O)N[C@H](C(=O)NCC(=O)N[C@@H](CCCNC(=N)N)C(=O)N[C@@H](CC(N)=O)C(=O)N[C@H](C(=O)N[C@@H](Cc1ccc(O)cc1)C(N)=O)[C@@H](C)O)C(C)C)[C@@H](C)O` [Example 78] (H-K([AEEA-γGlu-C20 diacid])CNTATCATQRLANFLRHSSPNFGAIPSSTNVGRNTY-NH2; disulfide 2-7 (inferred)), for which the “Ratio hCT/hAmylin funct.” value in data set [1] (setting [4]), in data set [1] (setting [5]) and in data set [1] (setting [6]) was 25.8 in each case. Further, the concentration giving a half-maximal response (EC50) in data set [1] stood at 0.316 nM. In addition, the solubility at 18 h in data set [2] (setting [7]), in data set [2] (setting [8]), in data set [2] (setting [9]), in data set [2] (setting [10]), in data set [2] (setting [11]) and in data set [2] (setting [12]) was no less than 200 µM each time. Moreover, the solubility at 18 h in data set [2] (setting [13]) and in data set [2] (setting [14]) was no less than 200 µM each time. Moreover, the IC50 in data set [3] was found to be 0.602 nM. The “Ratio hCT/hAmylin binding” value in data set [3] (setting [15]), in data set [3] (setting [16]), in data set [3] (setting [17]), in data set [3] (setting [18]), in data set [3] (setting [19]) and in data set [3] (setting [20]) was 60.7 throughout. The “Ratio hCT/hAmylin binding” value in data set [3] (setting [21]) is reported as 60.7.
Consider `CC[C@H](C)[C@H](NC(=O)[C@H](C)NC(=O)CNC(=O)[C@H](Cc1ccccc1)NC(=O)[C@H](CC(N)=O)NC(=O)[C@@H]1CCCN1C(=O)[C@H](CO)NC(=O)[C@H](CO)NC(=O)[C@H](Cc1c[nH]cn1)NC(=O)[C@H](CCCNC(=N)N)NC(=O)[C@H](CC(C)C)NC(=O)[C@H](Cc1ccccc1)NC(=O)[C@H](Cc1c[nH]cn1)NC(=O)[C@H](C)NC(=O)[C@H](CC(C)C)NC(=O)[C@H](CCCNC(=N)N)NC(=O)[C@H](CCC(N)=O)NC(=O)[C@@H](NC(=O)[C@H](C)NC(=O)[C@@H]1CSSC[C@H](NC(=O)[C@@H](N)CCCCNC(=O)CC[C@H](NC(=O)CCCCCCCCCCCCCCCCCCC(=O)O)C(=O)O)C(=O)N[C@@H](CC(N)=O)C(=O)N[C@@H]([C@@H](C)O)C(=O)N[C@@H](C)C(=O)N[C@@H]([C@@H](C)O)C(=O)N1)[C@@H](C)O)C(=O)N1CCC[C@H]1C(=O)N[C@@H](CO)C(=O)N[C@@H](CO)C(=O)N[C@H](C(=O)N[C@@H](CC(N)=O)C(=O)N[C@H](C(=O)NCC(=O)N[C@@H](CO)C(=O)N[C@@H](Cc1c[nH]cn1)C(=O)N[C@H](C(=O)N[C@@H](Cc1ccc(O)cc1)C(N)=O)[C@@H](C)O)C(C)C)[C@@H](C)O` [Example 66] (H-K([γGlu-C20 diacid])CNTATCATQRLAHFLRHSSPNFGAIPSSTNVGSHTY-NH2; disulfide 2-7; N-terminus assumed), for which the “Ratio hCT/hAmylin funct.” value in data set [1] (setting [4]), in data set [1] (setting [5]) and in data set [1] (setting [6]) was 20.1 each time. The concentration giving a half-maximal response (EC50) in data set [1] is 0.027 nM. Further, the solubility at 18 h in data set [2] (setting [7]) is no less than 200 µM; in data set [2] (setting [8]), 131 µM (≈ 580 µg/mL); in data set [2] (setting [9]), no less than 200 µM; in data set [2] (setting [10]), no less than 200 µM; in data set [2] (setting [11]), 52 µM (≈ 230 µg/mL); in data set [2] (setting [12]) it was no less than 200 µM. In addition, the solubility at 18 h in data set [2] (setting [13]) and in data set [2] (setting [14]) was no less than 200 µM throughout. Besides, the “Solubility pH 6.5 Concentration” value in data set [2] (pH 6.5 (Table 9a)) is reported as “≧200 μM”. In data set [2] (pH 7.0 (Table 9a)), the “Solubility pH 7.0 Concentration” value is “≧200 μM”. The IC50 in data set [3] is 0.396 nM. For the same compound, the “Ratio hCT/hAmylin binding” value in data set [3] (setting [15]), in data set [3] (setting [16]), in data set [3] (setting [17]), in data set [3] (setting [18]), in data set [3] (setting [19]) and in data set [3] (setting [20]) was 45.5 each time. The “Ratio hCT/hAmylin binding” value in data set [3] (setting [21]) was found to be 45.5.
For `CC[C@H](C)[C@H](NC(=O)[C@H](C)NC(=O)CNC(=O)[C@H](Cc1ccccc1)NC(=O)[C@H](CC(N)=O)NC(=O)[C@@H]1CCCN1C(=O)[C@H](CO)NC(=O)[C@H](CO)NC(=O)[C@H](Cc1c[nH]cn1)NC(=O)[C@H](CCCNC(=N)N)NC(=O)[C@H](CC(C)C)NC(=O)[C@H](Cc1ccccc1)NC(=O)[C@H](CCCNC(=N)N)NC(=O)[C@H](C)NC(=O)[C@H](CC(C)C)NC(=O)[C@H](CCCNC(=N)N)NC(=O)[C@H](CCC(N)=O)NC(=O)[C@@H](NC(=O)[C@H](C)NC(=O)[C@@H]1CSSC[C@H](NC(=O)[C@@H](N)CCCCNC(=O)COCCOCCNC(=O)CC[C@H](NC(=O)CCCCCCCCCCCCCCCCCCC(=O)O)C(=O)O)C(=O)N[C@@H](CC(N)=O)C(=O)N[C@@H]([C@@H](C)O)C(=O)N[C@@H](C)C(=O)N[C@@H]([C@@H](C)O)C(=O)N1)[C@@H](C)O)C(=O)N1CCC[C@H]1C(=O)N[C@@H](CO)C(=O)N[C@@H](CO)C(=O)N[C@H](C(=O)N[C@@H](CC(N)=O)C(=O)N[C@H](C(=O)NCC(=O)N[C@@H](CO)C(=O)N[C@@H](CC(N)=O)C(=O)N[C@H](C(=O)N[C@@H](Cc1ccc(O)cc1)C(N)=O)[C@@H](C)O)C(C)C)[C@@H](C)O` [Example 82] (H-K([AEEA-γGlu-C20 diacid])CNTATCATQRLARFLRHSSPNFGAIPSSTNVGSNTY-NH2; disulfide 2-7; N-terminus assumed), the “Ratio hCT/hAmylin funct.” value in data set [1] (setting [4]), in data set [1] (setting [5]) and in data set [1] (setting [6]) was 59.2 throughout. In addition, in data set [1], the concentration for a half-maximal effect (EC50) amounted to 0.215 nM. The solubility at 18 h in data set [2] (setting [7]), in data set [2] (setting [8]), in data set [2] (setting [9]), in data set [2] (setting [10]), in data set [2] (setting [11]) and in data set [2] (setting [12]) was no less than 200 µM throughout. For the same compound, the solubility at 18 h in data set [2] (setting [13]) and in data set [2] (setting [14]) was no less than 200 µM each time. Moreover, the half-inhibitory concentration (IC50) in data set [3] was 0.636 nM. In addition, the “Ratio hCT/hAmylin binding” value in data set [3] (setting [15]), in data set [3] (setting [16]), in data set [3] (setting [17]), in data set [3] (setting [18]), in data set [3] (setting [19]) and in data set [3] (setting [20]) was 139.6 each time. Moreover, the “Ratio hCT/hAmylin binding” value in data set [3] (setting [21]) worked out at 139.6.
